Key:
Assay type in all cases: in vivo
Design in all cases: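 grade 0 to 5 of growth suppression where 5 is 90% or more and 0 below 10%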
[1] = system: Abutilon theophrasti medicus; experiment: Herbicidal effects in upland field soil treatment (Test Example 2); conditions: 1000 g active ingredient per hectare, 21st day after treatment, criteria of Table 138
How it was run: (§1)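 Pre-emergence soil application: seeds sown in upland field soil, covered, then wettable powder diluted in water sprayed on the soil surface at 1000 g active ingredient/ha in 1000 L/ha. Plants grown in greenhouse; herbicidal effect scored on a rating scale 21 days after treatment.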

Amaranthus viridis L. [2] = experiment: as above; conditions: 1000 g active ingredient per hectare, 21st day after treatment, criteria of Table 138
How it was run: as §1

[3] = system: Monochoria vaginalis (Burm. f.) Presl var. plantaginea (Roxb.) Solms-Laub.; experiment: Herbicidal effects in paddy field soil treatment (Test Example 1); conditions: paddy field soil treatment; 1000 g of the active ingredient per hectare; wettable powder added dropwise on water surface; 21st day after treatment
How it was run: (§2)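 Weed seeds were sown into puddled, leveled paddy soil in pots and flooded to 3 cm water depth. One day later the diluted wettable powder formulation was dropped onto the water surface at 1000 g active ingredient per hectare. Herbicidal effect was scored on day 21 after greenhouse growth.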

[4] = system: Scirpus juncoides Roxb. var. ohwianus. T. Koyama; experiment: as above; conditions: paddy field soil treatment; 1000 g of the active ingredient per hectare; wettable powder added dropwise on water surface; 21st day after treatment
How it was run: as §2

[5] = system: Echinochloa oryzicola Vasing; experiment: as above; conditions: paddy field soil treatment; 1000 g of the active ingredient per hectare; wettable powder added dropwise on water surface; 21st day after treatment
How it was run: as §2

[6] = system: Abutilon theophrasti medicus; experiment: Herbicidal effects in upland field foliar treatment (Test Example 3); conditions: criteria of Table 138; for herbicidal effects on Abutilon theophrasti medicus: 1000 g of the active ingredient per hectare, 14th day after the treatment, wettable powder; for herbicidal effect (index) on Abutilon theophrasti medicus: 1000 g active ingredient per hectare, 14th day after treatment
How it was run: (§3)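 Weeds were sown in upland field soil and grown two weeks in a greenhouse before a foliar spray over the whole plant. Wettable powder was diluted in water and applied at 1000 L/ha, delivering 1000 g active ingredient/ha. Herbicidal effect was scored against set rating criteria 14 days after treatment.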

[7] = system: Echinochloa crus-galli (L.) P. Beauv. var. crus-galli; experiment: as above; conditions: criteria of Table 138; for herbicidal effects on Echinochloa crus-galli (L.) P. Beauv. var. crus-galli: 1000 g of the active ingredient per hectare, 14th day after the treatment, wettable powder; for herbicidal effect (index) on Echinochloa crus-galli (L.) P. Beauv. var. crus-galli: 1000 g active ingredient per hectare, 14th day after treatment
How it was run: as §3

Amaranthus viridis L. [8] = experiment: as above; conditions: criteria of Table 138; for herbicidal effects on Amaranthus viridis L.: 1000 g of the active ingredient per hectare, 14th day after the treatment, wettable powder; for herbicidal effect (index) on Amaranthus viridis L.: 1000 g active ingredient per hectare, 14th day after treatment
How it was run: as §3

Structure (SMILES)	herbicidal effect (index) on Abutilon theophrasti medicus [1]	herbicidal effect (index) on Amaranthus viridis L. (Amaranthus viridis L. [2])	Herbicidal effects index, Monochoria vaginalis (Burm. f.) Presl var. plantaginea (Roxb.) Solms-Laub. [3]	Herbicidal effects index, Scirpus juncoides Roxb. var. ohwianus. T. Koyama [4]	Herbicidal effects index, Echinochloa oryzicola Vasing [5]	herbicidal effects on Abutilon theophrasti medicus [6]	herbicidal effects on Echinochloa crus-galli (L.) P. Beauv. var. crus-galli [7]	herbicidal effects on Amaranthus viridis L. (Amaranthus viridis L. [8])	herbicidal effect (index) on Abutilon theophrasti medicus [6]	herbicidal effect (index) on Echinochloa crus-galli (L.) P. Beauv. var. crus-galli [7]	herbicidal effect (index) on Amaranthus viridis L. (Amaranthus viridis L. [8])
O=C(C1=C(O)C2CCC(C2)C1=O)c1nc2cccnc2n(-c2ccccc2)c1=O (stereo not drawn) [IV-4]	5	5	5	5	5	5	5	5			
N#Cc1cccc(-n2c(=O)c(C(=O)C3=C(O)CCCC3=O)nc3ccccc32)c1 [II-136]	5	5	5	5	5	5	5	5			
CCc1ccc(-n2c(=O)c(C(=O)C3=C(O)CCCC3=O)nc3ccccc32)cc1 [II-24]	5	5	5	5	5	4	5	5			
CC1(C)C(=O)C(C(=O)c2nc3ccccc3n(-c3ccc(Cl)cc3)c2=O)=C(O)C(C)(C)C1=O [II-15]	5	5	5	5	5	5	5	5			
O=C1CCCC(O)=C1C(=O)c1nc2ccccc2n(-c2ccc(Cl)cc2)c1=O [II-13]	5	5	5	5	5				5	5	5
O=C1CCCC(O)=C1C(=O)c1nc2cccnc2n(-c2cccc(C(F)(F)F)c2)c1=O [IV-39]	5	5	5	5	5	5	5	5			
O=C1CCCC(O)=C1C(=O)c1nc2cc(C(F)(F)F)ccc2n(-c2ccccc2)c1=O [II-249]	5	5	5	5	5	5	5	5			
C#CCn1c(=O)c(C(=O)C2=C(O)CCCC2=O)nc2cccnc21 [III-35]	5	5	5	5	4	5	4	5			
Cc1ccc(-n2c(=O)c(C(=O)C3=C(O)CCCC3=O)nc3ccccc32)cc1F [II-213]	5	5	5	5	5	5	4	5			
O=C1CCCC(O)=C1C(=O)c1nc2ccccc2n(-c2ccc(Cl)cn2)c1=O [I-177]	5	5	5	5	5				5	5	5
O=C1CCCC(O)=C1C(=O)c1nc2cccnc2n(-c2ccc(F)cc2)c1=O [IV-8]	5	5	5	5	5	5	5	5			
COc1cc(OC)nc(-n2c(=O)c(C(=O)C3=C(O)CCCC3=O)nc3ccccc32)n1 [I-197]	5	5	5	5	5				5	5	5
O=C1CCCC(O)=C1C(=O)c1nc2cccnc2n(Cc2ccccc2C(F)(F)F)c1=O [III-117]	5	5	5	5	5	5	5	5			
O=C1CCCC(O)=C1C(=O)c1nc2ccccc2n(Cc2ccccc2)c1=O [Compound I-107]	5	5	5	5	4				5	4	5
Cn1c(=O)c(C(=O)C2=C(O)CCCC2=O)nc2cc(Cl)ccc21 [I-225]	5	5	5	4	5				5	4	5
O=C1CCCC(O)=C1C(=O)c1nc2cccc(F)c2n(-c2ccccc2)c1=O [II-243]	5	5	5	5	5	5	5	5			
N#CCCn1c(=O)c(C(=O)C2=C(O)CCCC2=O)nc2ccccc21 [Compound I-103]	5	5	5	5	5				5	5	5
CC(C)(C)OC(=O)Cn1c(=O)c(C(=O)C2=C(O)CCCC2=O)nc2cccnc21 [III-99]	5	5	5	5	5	5	4	5			
